Data from ChEMBL document CHEMBL1150188, “Chemistry of Sponges, X. New Sesquiterpenes from a Marine Sponge of the Genus Eurypon” (J Nat Prod, 1990).
Calls of active or inactive are those of the source. The rule behind the calls is not given here.

Tested on: Escherichia coli
Experiment: Antimicrobial activity against Escherichia coli at 100 ug/disk by standard disk assay
Type: functional, organism-based

CC1(C)C[C@@H]2C3=C[C@@H](O)C[C@](C)(CC[C@@H]21)C3
Activity: Active
